Measurements: ChEMBL document CHEMBL3882732, “4,5-diaryl-3(2H)-furanone derivatives as cyclooxygenase-2 inhibitors” (2002)
Values belong to the compound of their own block, whether it stands above or below them.

Experiments:
Mus musculus = experiment: Analgesic activity in ICR mouse assessed as reduction in number of abdominal constrictions dosed through oral gavage one hr before acetic acid challenge measured after 6 mins post acetic acid challenge by acetic acid-induced writhing test; assay type: functional; conditions: Abdomen, 0.1 h
Rattus norvegicus [1] = experiment: Anti-inflammatory activity in Sprague-Dawley rat model of […] Freund's adjuvant-induced arthritis assessed as inhibition of adjuvant-induced arthritis dosed through oral gavage daily once beginning on day 14 after adjuvant injection and continued till day 22 after adjuvant injection by displacement plethysmometry; assay type: functional
[2] = biological target: T1, Prostaglandin G/H synthase 2 (Mus musculus, UniProt Q05769); experiment: Inhibition of COX2 in C57BL/6 mouse peritoneal macrophages assessed as reduction in PGE2 formation pre-incubated for 2 hrs before LPS stimulation for 16 hrs followed by arachidonic acid addition and measured after 10 mins in presence of 500 uM aspirin by radio-immuno assay or enzyme-immunoassay
T1 sequence (Q05769 whole entry): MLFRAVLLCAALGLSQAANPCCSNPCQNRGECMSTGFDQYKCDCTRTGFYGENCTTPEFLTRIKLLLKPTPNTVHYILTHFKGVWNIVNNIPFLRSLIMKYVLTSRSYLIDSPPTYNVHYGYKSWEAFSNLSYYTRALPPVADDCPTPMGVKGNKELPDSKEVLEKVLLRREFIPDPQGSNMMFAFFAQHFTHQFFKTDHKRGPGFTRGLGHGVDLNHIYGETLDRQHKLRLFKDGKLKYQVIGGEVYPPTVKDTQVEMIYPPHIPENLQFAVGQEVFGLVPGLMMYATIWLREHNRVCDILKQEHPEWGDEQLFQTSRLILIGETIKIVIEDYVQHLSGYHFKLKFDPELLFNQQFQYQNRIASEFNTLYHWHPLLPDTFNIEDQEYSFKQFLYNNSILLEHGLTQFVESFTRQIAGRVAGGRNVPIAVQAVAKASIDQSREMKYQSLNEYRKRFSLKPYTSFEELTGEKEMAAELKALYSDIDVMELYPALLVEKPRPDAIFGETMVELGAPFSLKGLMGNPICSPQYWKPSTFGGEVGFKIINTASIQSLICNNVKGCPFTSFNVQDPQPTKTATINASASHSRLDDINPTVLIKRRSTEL

[3] = biological target: T2, Prostaglandin G/H synthase 1 (Mus musculus, UniProt P22437); experiment: Inhibition of COX1 in C57BL/6 mouse peritoneal macrophages assessed as reduction in PGE2 formation pre-incubated for 2 hrs followed by arachidonic acid addition and measured after 10 mins by radio-immuno assay or enzyme-immunoassay
T2 sequence (P22437 whole entry): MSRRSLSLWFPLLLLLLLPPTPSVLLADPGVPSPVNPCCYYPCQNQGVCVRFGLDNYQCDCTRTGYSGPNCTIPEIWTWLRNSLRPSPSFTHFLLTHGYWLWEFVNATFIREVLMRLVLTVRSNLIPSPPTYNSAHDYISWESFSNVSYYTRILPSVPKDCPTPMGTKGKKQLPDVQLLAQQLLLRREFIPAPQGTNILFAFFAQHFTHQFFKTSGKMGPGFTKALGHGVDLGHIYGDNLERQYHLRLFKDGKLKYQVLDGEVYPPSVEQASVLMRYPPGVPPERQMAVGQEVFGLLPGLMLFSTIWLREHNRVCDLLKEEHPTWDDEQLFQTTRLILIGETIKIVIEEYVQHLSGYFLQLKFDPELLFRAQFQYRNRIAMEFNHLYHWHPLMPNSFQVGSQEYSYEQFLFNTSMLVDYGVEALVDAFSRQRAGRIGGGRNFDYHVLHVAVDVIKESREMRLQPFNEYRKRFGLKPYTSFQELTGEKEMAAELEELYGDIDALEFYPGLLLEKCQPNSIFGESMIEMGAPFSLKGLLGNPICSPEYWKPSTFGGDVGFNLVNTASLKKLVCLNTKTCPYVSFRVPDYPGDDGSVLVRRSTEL

Rattus norvegicus [4] = experiment: Anti-inflammatory activity in Sprague-Dawley rat assessed as inhibition of carrageenan-induced foot edema at 3 mg/kg dosed through oral gavage 1 hr before carrageenan challenge and measured 3 hrs after carrageenan challenge; assay type: functional
[5] = Drug level in Sprague-Dawley rat blood treated with 4-(3-Chlorophenyl)-2,2-dimethyl-5-{4-(methylsulfinyl)phenyl}-3(2H)-furanone at 10 mg/kg dosed through oral gavage assessed as sulfoxide to sulfonyl bio-transformation by measuring compound level measured after 24 to 48 hrs by HPLC method; assay type: ADME, organism-based; conditions: in vivo
[6] = Drug metabolism in Sprague-Dawley rat blood assessed as sulfoxide to sulfonyl bio-transformation by measuring compound-62 level at 10 mg/kg dosed through oral gavage measured after 24 to 48 hrs by HPLC method; assay type: ADME, organism-based; conditions: in vivo

Structure (SMILES): COc1ccc2c(c1)c(CC(=O)O)c(C)n2C(=O)c1ccc(Cl)cc1 [INDOMETHACIN]
- ED50 (Mus musculus): 7.4 mg/kg

Structure (SMILES): CC1(C)OC(c2ccc(S(C)(=O)=O)cc2)=C(c2cc(F)cc(F)c2)C1=O
- ED50 (Rattus norvegicus [1]): 0.03 mg/kg

- IC50 [2]: 0.0337 µM
- IC50 [3]: 8.98 µM
Structure (SMILES): CC(=O)c1cccc(C2=C(c3ccc(S(N)(=O)=O)cc3)OC(C)(C)C2=O)c1

- IC50 [3]: 24.4 µM
Structure (SMILES): CC(C)c1ccc(C2=C(c3ccc(S(C)(=O)=O)cc3)OC3(CCCC3)C2=O)cc1

Structure (SMILES): CC1(C)OC(c2ccc(S(N)(=O)=O)c(F)c2)=C(c2ccc(F)cc2F)C1=O
- inhibition in vivo at 3 mg/kg (Rattus norvegicus [4]): 32%

Structure (SMILES): CC1(C)OC(c2ccc(S(C)(=O)=O)cc2)=C(c2cccc(C(F)(F)F)c2)C1=O
- ED50 (Rattus norvegicus [1]): 0.06 mg/kg

Structure (SMILES): CC1(C)OC(c2ccc(S(C)(=O)=O)cc2)=C(c2cccc(F)c2)C1=O
- ED50 (Rattus norvegicus [1]): 0.07 mg/kg
- ED50 (Mus musculus): 8.3 mg/kg

Structure (SMILES): CC1(C)OC(c2ccc(S(N)(=O)=O)cc2)=C(c2cccc(F)c2)C1=O [POLMACOXIB]
- ED50 (Rattus norvegicus [1]): 0.02 mg/kg
- ED50 (Mus musculus): 12.3 mg/kg

Structure (SMILES): CC1(C)OC(c2ccc(S(N)(=O)=O)cc2F)=C(c2ccc(F)cc2)C1=O
- ED50 (Rattus norvegicus [1]): 0.09 mg/kg

Structure (SMILES): CC1(C)OC(c2ccc(S(N)(=O)=O)cc2)=C(c2cccc(Cl)c2)C1=O
- ED50 (Rattus norvegicus [1]): 0.03 mg/kg

- IC50 [2]: 8.71 µM
- IC50 [3]: 87.1 µM
Structure (SMILES): C[S+]([O-])c1ccc(C2=C(c3ccc(F)cc3)C(=O)C(C)(C)O2)cc1 (stereo not drawn)

- Drug metabolism [5]: Metabolite_Detected
Structure (SMILES): CC1(C)OC(c2ccc(S(C)(=O)=O)cc2)=C(c2cccc(Cl)c2)C1=O

- Drug metabolism [6]: Metabolite_Detected
Structure (SMILES): C[S+]([O-])c1ccc(C2=C(c3cccc(Cl)c3)C(=O)C(C)(C)O2)cc1 (stereo not drawn)

- IC50 [3]: 29 µM
Structure (SMILES): C[S+]([O-])c1ccc(C2=C(c3cccc(F)c3)C(=O)C(C)(C)O2)cc1 (stereo not drawn)
